Experimental data reported in US4439426A, “Semisynthetic macrolidic antibiotics, intermediate compounds for their preparation and related pharmaceutical compositions containing them” (priority 1981, dated 1984).
Values after ≈ are worked out from the molar mass of the structure shown. Values joined by “and” are separate entries in the source; they are usually repeats but may differ in a detail not shown here. Identical values can stand only once.

Columns and labels:
[1] = tested on: Clostridium perfrigens ATCC 3624 LRP 206; assay: microbe, parasite or virus in culture; assay type: cell-based; conditions: ATCC3624, read-out: Minimum inhibiting concentration
Method in brief: (§1)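 Here MIC denotes bacteriostatic potency, determined on aerobic and anaerobic stocks from Gram-positive as well as Gram-negative genera.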

Salmonella typhy LRP 8 = assay: microbe, parasite or virus in culture; assay type: cell-based; conditions: LRP8, solid medium, read-out: Minimum inhibiting concentration
Method in brief: as §1

[2] = tested on: Staphylococcus aureus ATCC 6538 P LRP 39; assay: Bacteriostatic power in liquid medium (MIC); assay type: cell-based; conditions: Staphylococcus aureus, ATCC6538, read-out: Minimum inhibiting concentration
Method in brief: as §1

[3] = Serum concentrations in the rat after oral administration; assay type: in vivo; conditions: 100 mg/kg per os
Experimental: administration of 100 mg/kg per os. The values, at the
several sampling times, correspond to mcg of product per ml of serum*.

## CC[C@H]1OC(=O)[C@H](C)[C@@H](O[C@H]2C[C@@](C)(OC)[C@@H](O)[C@H](C)O2)[C@H](C)[C@@H](O[C@@H]2O[C@H](C)C[C@H](N(C)C)[C@H]2O)[C@](C)(O)C[C@](C)(F)C(=O)[C@H](C)[C@@H](O)[C@]1(C)O [P-80206, (8S)-8-fluoroerythromycin A]
[1]
  MIC: 0.78 µg/mL (≈ 1.04 µM)
Salmonella typhy LRP 8
  MIC: 12.5 µg/mL (≈ 16.6 µM)
[2]
  MIC: 0.195 µg/mL (≈ 0.259 µM)
[3]; 0.5 hours, 30 min
  Serum concentration, individual rat: 0.078 mcg of product per ml of serum and 0.198 mcg of product per ml of serum and 0.630 mcg of product per ml of serum and 0.487 mcg of product per ml of serum and 1.105 mcg of product per ml of serum and 1.333 mcg of product per ml of serum
[3]; 1 hour, 60 min
  Serum concentration, individual rat: 8.505 mcg of product per ml of serum and 0.880 mcg of product per ml of serum and 1.273 mcg of product per ml of serum and 1.251 mcg of product per ml of serum and 1.714 mcg of product per ml of serum and 0.531 mcg of product per ml of serum
[3]; 2 hours, 120 min
  Serum concentration, individual rat: 3.712 mcg of product per ml of serum and 6.516 mcg of product per ml of serum and 3.510 mcg of product per ml of serum and 6.907 mcg of product per ml of serum and 6.601 mcg of product per ml of serum and 7.195 mcg of product per ml of serum
[3]; 4 hours, 240 min
  Serum concentration, individual rat: 1.792 mcg of product per ml of serum and 2.134 mcg of product per ml of serum and 1.270 mcg of product per ml of serum and 2.817 mcg of product per ml of serum and 2.362 mcg of product per ml of serum and 2.115 mcg of product per ml of serum
[3]; 6 hours, 360 min
  Serum concentration, individual rat: 0.867 mcg of product per ml of serum and 0.393 mcg of product per ml of serum and 1.192 mcg of product per ml of serum and 1.792 mcg of product per ml of serum and 1.620 mcg of product per ml of serum and 1.147 mcg of product per ml of serum
[3]; rat, in vivo, po, 100 mg/kg, 0.5 hours, read-out: Serum concentration, average
  concentration at 0.5 h: 638 ng/mL
[3]; rat, in vivo, po, 100 mg/kg, 1 hour, read-out: Serum concentration, average
  concentration at 1 h: 2360 ng/mL
[3]; rat, in vivo, po, 100 mg/kg, 2 hours
  concentration at 2 h: 5740 ng/mL
[3]; rat, in vivo, po, 100 mg/kg, 4 hours, read-out: Serum concentration, average
  concentration at 4 h: 2080 ng/mL
[3]; rat, in vivo, po, 100 mg/kg, 6 hours, read-out: Serum concentration, average
  concentration at 6 h: 1170 ng/mL
